Here are results for nine compounds from patent US12600720B2, “Modulators of the integrated stress response pathway” (Evotec International GmbH, priority 2020, dated 2026).

Molecules are shown by their SMILES.

For orientation: IC50 means the point on the concentration scale where inhibition reaches its midpoint.

The subject of the assay is ATF4. Put plainly: HEK-ATF4 High Content Imaging assay (prevention of Tunicamycin induced ISR, ATF4 nucleus/cytoplasm signal ratio). In kind it is cell-based. The following applies: Homo sapiens, wild-type HEK293 cells, 6 h incubation, ATF4 immunofluorescence. As to the method: HEK-ATF4 High Content Imaging assay
Example compounds were tested in the HEK-ATF4 High Content Imaging assay to assess their pharmacological potency to prevent Tunicamycin induced ISR. Wild-type HEK293 cells were plated in 384-well imaging assay plates at a density of 12,000 cells per well in growth medium (containing DMEM/F12, 10% FBS, 2 mM L-Glutamine, 100 U/mL Penicillin—100 μg/mL Streptomycin) and incubated at 37° C., 5% CO2. 24 h later, the medium was changed to 50 μL assay medium per well (DMEM/F12, 0.3% FBS, 2 mM L-Glutamine, 100 U/mL Penicillin—100 μg/mL Streptomycin). Example compounds were serially diluted in DMSO, spotted into intermediate plates and prediluted with assay medium containing 3.3 μM Tunicamycin to give an 11-fold excess of final assay concentration. In addition to the example compound testing area, the plates also contained multiples of control wells for assay normalization purposes, wells containing Tunicamycin but no example compounds (High control), as well as wells containing neither example compound nor Tunicamycin (Low control). The assay was started by transferring 5 μL from the intermediate plate into the assay plates, followed by incubation for 6 h at 37° C., 5% CO2. Subsequently, cells were fixed (4% PFA in PBS, 20 min at r.t.) and submitted to indirect ATF4 immunofluorescence staining (primary antibody rabbit anti ATF4, clone D4B8, Cell Signaling Technologies; secondary antibody Alexa Fluor 488 goat anti-rabbit IgG (H+L), Thermofisher Scientific). Nuclei were stained using Hoechst dye (Thermofisher Scientific), and plates were imaged on an Opera Phenix High Content imaging platform equipped with 405 nm and 488 nm excitation. Finally, images were analyzed using script based algorithms. The main readout HEK-ATF4 monitored the ATF4 signal ratio between nucleus and cytoplasm. Tunicamycin induced an increase in the overall ATF4 ratio signal, which was prevented by ISR modulating example compounds. In addition, HEK-CellCount readout was derived from counting the number of stained nuclei corresponding to healthy cells. This readout served as an internal toxicity control.

For the compound `O=C(COc1ccc(Cl)c(F)c1)N[C@H]1CC[C@H](c2nc3ccc(OC(F)(F)F)cc3o2)NC1` [Example 12, 2-(4-chloro-3-fluorophenoxy)-N-[(3S,6R)-6-[6-(trifluoromethoxy)-1,3-benzoxazol-2-yl]piperidin-3-yl]acetamide], the 50% inhibitory concentration (IC50) was 1 to 500 nM.

In the case of `O=C(COc1ccc(Cl)c(F)c1)N[C@H]1CC[C@H](c2nc3cccc(Cl)c3o2)NC1` [Example 10, N-[(3S,6R)-6-(7-chloro-1,3-benzoxazol-2-yl)piperidin-3-yl]-2-(4-chloro-3-fluorophenoxy)acetamide], the IC50 was in the range of 500 to 2000 nM. As for `O=C(COc1ccc(Cl)c(F)c1)N[C@H]1CC[C@H](c2nc3ccc(Cl)cc3o2)NC1` [Example 2, N-[(3S,6R)-6-(6-chloro-1,3-benzoxazol-2-yl)piperidin-3-yl]-2-(4-chloro-3-fluorophenoxy)acetamide], the IC50 was in the range of 500 to 2000 nM. With `O=C(COc1ccc(Cl)c(F)c1)N[C@H]1CC[C@H](c2nc3cc(Cl)ccc3o2)NC1` [Example 4, N-[(3S,6R)-6-(5-chloro-1,3-benzoxazol-2-yl)piperidin-3-yl]-2-(4-chloro-3-fluorophenoxy)acetamide] the figure was 2000 to 15000 nM; with `O=C(COc1ccc(Cl)c(F)c1)N[C@H]1CC[C@H](c2nc3c(Cl)cccc3o2)NC1` [Example 18, N-[(3S,6R)-6-(4-chloro-1,3-benzoxazol-2-yl)piperidin-3-yl]-2-(4-chloro-3-fluorophenoxy)acetamide], 2000 to 15000 nM; with `O=C(COc1ccc(Cl)c(F)c1)N[C@H]1CC[C@H](c2nc3ccc(OC(F)F)cc3o2)NC1` [Example 14, 2-(4-chloro-3-fluorophenoxy)-N-[(3S,6R)-6-[6-(difluoromethoxy)-1,3-benzoxazol-2-yl]piperidin-3-yl]acetamide], 500 to 2000 nM. With `O=C(COc1ccc(Cl)c(F)c1)N[C@H]1CC[C@H](c2nc3ccc(C(F)(F)F)cc3o2)NC1` [Example 16, 2-(4-chloro-3-fluorophenoxy)-N-[(3S,6R)-6-[6-(trifluoromethyl)-1,3-benzoxazol-2-yl]piperidin-3-yl]acetamide] the figure was 1 to 500 nM; with `O=C(COc1ccc(Cl)c(F)c1)N[C@H]1CC[C@H](c2cn3ccc(C(F)(F)F)cc3n2)NC1` [Example 8, 2-(4-chloro-3-fluoro-phenoxy)-N-[(3S,6R)-6-[7-(trifluoromethyl)imidazo[1,2-a]pyridin-2-yl]-3-piperidyl]acetamide], 2000 to 15000 nM. On to `O=C(COc1ccc(Cl)c(F)c1)N[C@H]1CC[C@H](c2cn3cc(C(F)(F)F)ccc3n2)NC1` [Example 6, 2-(4-chloro-3-fluoro-phenoxy)-N-[(3S,6R)-6-[6-(trifluoromethyl)imidazo[1,2-a]pyridin-2-yl]-3-piperidyl]acetamide], for which the IC50 lay within 2000 to 15000 nM.
